Data reported in patent US20020137929A1, “1 - (3-heterocyclylphenyl) isothiourea, -isourea, -guanidine and -amidine herbicidal agents” (Intellectual Property Department, BASF Aktiengesellschaft, priority 1998, published 2002).

What was measured:
[1] = test system: TRZAWR (Wheat, Winter, cv Riband); experiment: Preemergence herbicidal evaluation; format: in vivo, Triticum aestivum; details: rated 4-5 weeks after treatment
Summary of the method: (§1)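 Scores use a 0–9 visual scale covering stand, vigor, malformation, size and chlorosis relative to controls, rated four to five weeks after treatment. Before emergence, soil-planted seeds were sprayed with compound in aqueous acetone at roughly 0.0156–0.500 kg/ha and held in the greenhouse.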

[2] = test system: CHEAL (Lambsquarters, Common); experiment: Postemergence herbicidal evaluation; format: in vivo, Chenopodium album
Summary of the method: (§2)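 Young plants, roughly two weeks from seeding, receive the active ingredient as a sprayed dispersion (acetone/water 50/50, 0.5% TWEEN 20) at 40 psi. Doses span about 0.0156 to 0.500 kg/ha. A visual score from 0 to 9 compares treated with control plants four to five weeks on.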

[3] = test system: GLXMAW (Soybean, Williams); experiment: Preemergence herbicidal evaluation; format: in vivo, Glycine max, (L.) Merr. cv Williams; details: rated 4-5 weeks after treatment
Summary of the method: as §1

[4] = test system: CASOB (Sicklepod); experiment: Preemergence herbicidal evaluation; format: in vivo, Cassia obtusifolia; details: rated 4-5 weeks after treatment
Summary of the method: as §1

[5] = test system: IPOHE (Morningglory, Ivyleaf); experiment: Postemergence herbicidal evaluation; format: in vivo, Ipomoea hederacea
Summary of the method: as §2

[6] = test system: ZEAMX (Corn, Field); experiment: Preemergence herbicidal evaluation; format: in vivo, Zea mays; details: rated 4-5 weeks after treatment
Summary of the method: as §1

[7] = test system: ABUTH (Velvetleaf); experiment: Preemergence herbicidal evaluation; format: in vivo, Abutilon theophrasti; details: rated 4-5 weeks after treatment
Summary of the method: as §1

[8] = test system: ECHCG (Barnyardgrass); experiment: Preemergence herbicidal evaluation; format: in vivo, Echinochloa crus-galli; details: rated 4-5 weeks after treatment
Summary of the method: as §1

[9] = test system: ZEAMX (Corn, Field); experiment: Postemergence herbicidal evaluation; format: in vivo, Zea mays
Summary of the method: as §2

[10] = test system: CHEAL (Lambsquarters, Common); experiment: Preemergence herbicidal evaluation; format: in vivo, Chenopodium album; details: rated 4-5 weeks after treatment
Summary of the method: as §1

[11] = test system: CYPIR (Rice Flatsedge); experiment: Postemergence weed control under flooded paddy conditions; format: in vivo, Cyperus iria; details: rate 0.2500 kg/ha, postemergence weeds, 3-4 weeks after treatment
Summary of the method: (§3)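 Injury ratings (0–9 scale covering stand, vigor, malformation, size, chlorosis and overall appearance versus control) were made three to four weeks after treatment. Test material, about 0.0313 to 0.500 kg/ha a.i. in 50/50 v/v aqueous/acetone, was added to flood water 1.5 to 3 cm deep over 3 to 5 cm weeds and 1.5 to 2.5 leaf rice.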

[12] = test system: CYPSE (Flatsedge); experiment: as above; format: in vivo, Cyperus serotinus; details: rate 0.2500 kg/ha, postemergence weeds, 3-4 weeks after treatment
Summary of the method: as §3

[13] = test system: ECHCG (Barnyardgrass); experiment: Postemergence herbicidal evaluation; format: in vivo, Echinochloa crus-galli
Summary of the method: as §2

[14] = test system: SETVI (Foxtail, Green); experiment: Postemergence herbicidal evaluation; format: in vivo, Setaria viridis
Summary of the method: as §2

[15] = test system: IPOHE (Morningglory, Ivyleaf); experiment: Preemergence herbicidal evaluation; format: in vivo, Ipomoea hederacea; details: rated 4-5 weeks after treatment
Summary of the method: as §1

[16] = test system: ORYSAT (Rice, Tebonnet); experiment: Postemergence herbicidal evaluation; format: in vivo, Oryza sativa, (L.) Tebonnet
Summary of the method: as §2

[17] = test system: ABUTH (Velvetleaf); experiment: Postemergence herbicidal evaluation; format: in vivo, Abutilon theophrasti
Summary of the method: as §2

## CCOC(=O)CN1C(=O)C(CC(=O)O)SC1=Nc1cc(-n2c(=O)cc(C(F)(F)F)n(C)c2=O)c(Cl)cc1Cl (centres unmarked) [Compound 33, 2-{{2,4-Dichloro-5-[3,6-dihydro-3-methyl-2,6-dioxo-4-(trifluoromethyl)-1(2H)-pyrimidinyl]phenyl}-imino}-4-oxo-3,5-thiazolidinediacetic acid, 3-ethyl ester]
[1]; rate 0.0156 kg/ha
  Preemergence herbicidal rating TRZAWR: 0.0
[1]; rate 0.0313 kg/ha
  Preemergence herbicidal rating TRZAWR: 0.0
[1]; rate 0.0625 kg/ha
  Preemergence herbicidal rating TRZAWR: 0.0
[1]; rate 0.1250 kg/ha
  Preemergence herbicidal rating TRZAWR: 0.0
[1]; rate 0.2500 kg/ha
  Preemergence herbicidal rating TRZAWR: 0.0
[2]; Rate 0.0158 kg/ha
  Postemergence herbicidal rating CHEAL: 9.0
[2]; Rate 0.0315 kg/ha
  Postemergence herbicidal rating CHEAL: 9.0
[2]; Rate 0.0630 kg/ha
  Postemergence herbicidal rating CHEAL: 9.0
[3]; rate 0.0156 kg/ha
  Preemergence herbicidal rating GLXMAW: 0.0
[3]; rate 0.0313 kg/ha
  Preemergence herbicidal rating GLXMAW: 0.0
[3]; rate 0.0625 kg/ha
  Preemergence herbicidal rating GLXMAW: 0.0
[3]; rate 0.1250 kg/ha
  Preemergence herbicidal rating GLXMAW: 0.0
[3]; rate 0.2500 kg/ha
  Preemergence herbicidal rating GLXMAW: 0.0
[4]; rate 0.0156 kg/ha
  Preemergence herbicidal rating CASOB: 0.0
[4]; rate 0.0313 kg/ha
  Preemergence herbicidal rating CASOB: 0.0
[4]; rate 0.0625 kg/ha
  Preemergence herbicidal rating CASOB: 0.0
[4]; rate 0.1250 kg/ha
  Preemergence herbicidal rating CASOB: 4.0
[4]; rate 0.2500 kg/ha
  Preemergence herbicidal rating CASOB: 9.0
[5]; Rate 0.0158 kg/ha
  Postemergence herbicidal rating IPOHE: 9.0
[5]; Rate 0.0315 kg/ha
  Postemergence herbicidal rating IPOHE: 9.0
[5]; Rate 0.0630 kg/ha
  Postemergence herbicidal rating IPOHE: 9.0
[6]; rate 0.0156 kg/ha
  Preemergence herbicidal rating ZEAMX: 0.0
[6]; rate 0.0313 kg/ha
  Preemergence herbicidal rating ZEAMX: 0.0
[6]; rate 0.0625 kg/ha
  Preemergence herbicidal rating ZEAMX: 0.0
[6]; rate 0.1250 kg/ha
  Preemergence herbicidal rating ZEAMX: 0.0
[6]; rate 0.2500 kg/ha
  Preemergence herbicidal rating ZEAMX: 0.0
[7]; rate 0.0156 kg/ha
  Preemergence herbicidal rating ABUTH: 0.0
[7]; rate 0.0313 kg/ha
  Preemergence herbicidal rating ABUTH: 0.0
[7]; rate 0.0625 kg/ha
  Preemergence herbicidal rating ABUTH: 9.0
[7]; rate 0.1250 kg/ha
  Preemergence herbicidal rating ABUTH: 9.0
[7]; rate 0.2500 kg/ha
  Preemergence herbicidal rating ABUTH: 9.0
[8]; rate 0.0156 kg/ha
  Preemergence herbicidal rating ECHCG: 0.0
[8]; rate 0.0313 kg/ha
  Preemergence herbicidal rating ECHCG: 0.0
[8]; rate 0.0625 kg/ha
  Preemergence herbicidal rating ECHCG: 0.0
[8]; rate 0.1250 kg/ha
  Preemergence herbicidal rating ECHCG: 0.0
[8]; rate 0.2500 kg/ha
  Preemergence herbicidal rating ECHCG: 0.0
[9]; Rate 0.0158 kg/ha
  Postemergence herbicidal rating ZEAMX: 7.5
[9]; Rate 0.0315 kg/ha
  Postemergence herbicidal rating ZEAMX: 8.0
[9]; Rate 0.0630 kg/ha
  Postemergence herbicidal rating ZEAMX: 8.5
[10]; rate 0.0156 kg/ha
  Preemergence herbicidal rating CHEAL: 4.0
[10]; rate 0.0625 kg/ha
  Preemergence herbicidal rating CHEAL: 7.0
[10]; rate 0.1250 kg/ha
  Preemergence herbicidal rating CHEAL: 9.0
[10]; rate 0.2500 kg/ha
  Preemergence herbicidal rating CHEAL: 9.0
[11]
  Herbicidal rating CYPIR: 0.0
[12]
  Herbicidal rating CYPSE: 0.0
[13]; Rate 0.0158 kg/ha
  Postemergence herbicidal rating ECHCG: 2.0
[13]; Rate 0.0315 kg/ha
  Postemergence herbicidal rating ECHCG: 9.0
[13]; Rate 0.0630 kg/ha
  Postemergence herbicidal rating ECHCG: 9.0
[14]; Rate 0.0158 kg/ha
  Postemergence herbicidal rating SETVI: 4.0
[14]; Rate 0.0315 kg/ha
  Postemergence herbicidal rating SETVI: 7.0
[14]; Rate 0.0630 kg/ha
  Postemergence herbicidal rating SETVI: 8.0
[15]; rate 0.0156 kg/ha
  Preemergence herbicidal rating IPOHE: 0.0
[15]; rate 0.0313 kg/ha
  Preemergence herbicidal rating IPOHE: 0.0
[15]; rate 0.0625 kg/ha
  Preemergence herbicidal rating IPOHE: 0.0
[15]; rate 0.1250 kg/ha
  Preemergence herbicidal rating IPOHE: 0.0
[15]; rate 0.2500 kg/ha
  Preemergence herbicidal rating IPOHE: 9.0
[16]; Rate 0.0158 kg/ha
  Postemergence herbicidal rating ORYSAT: 0.5
[16]; Rate 0.0315 kg/ha
  Postemergence herbicidal rating ORYSAT: 2.0
[16]; Rate 0.0630 kg/ha
  Postemergence herbicidal rating ORYSAT: 2.0
[17]; Rate 0.0158 kg/ha
  Postemergence herbicidal rating ABUTH: 9.0
[17]; Rate 0.0315 kg/ha
  Postemergence herbicidal rating ABUTH: 9.0
[17]; Rate 0.0630 kg/ha
  Postemergence herbicidal rating ABUTH: 9.0
